In test [1] the test system is Carnation mottle virus (CarMV) and Carnation necrotic fleck virus (CNFV). Put plainly: Virus-free culture, ribavirin combined with shoot apex peeling: virus-free regenerated plants. It is filed as in vivo, Dianthus caryophyllus. Conditions: 3 mg/L to 5 mg/L ribavirin in medium, 30 d to 40 d; for Number of virus-free regenerated plant (s): 30 shoot apexes. As for the experimental part:
Double-antibody sandwich ELISA included: 100 µL of an antibody diluted to a working concentration with a coating buffer was added to wells of a microtiter plate, the microtiter plate was placed in a wet box, and incubated in a refrigerator at 4° C. overnight, or incubated at room temperature (20° C. to 25° C.) for 4 h. The coating buffer was a 0.05 mol/L Na2CO3—NaHCO3 buffer, at a pH value of 9.6. Dianthus caryophyllus leaves and a grinding buffer were put in a disposable ziplock bag at a ratio of 1:10 (W/V), the bag was sealed tightly, and the sample was ground. The grinding buffer was obtained by: dissolving 2.0 g of a skim milk powder, 10.0 g of polyvinylpyrrolidone (PVP, MW24,000-40,000), 1.3 g of anhydrous sodium sulfite, 0.2 g of NaN3, and 10.0 g of Tween-20 in a washing buffer (PBST), diluting to 1,000 mL, and storing at 4° C. The washing buffer (PBST) was obtained by: dissolving 8.0 g of NaCl, 0.2 g of KH2PO4, 2.9 g of Na2HPO4·12H2O, 0.2 g of KCl, and 0.5 mL of Tween-20 in distilled water, diluting to 1,000 mL, and adjusting to a pH value of 7.4. After incubation, the microtiter plate was washed 4 to 6 times with the washing buffer. 400 µL of the PBST washing buffer was added to each well and held for 1 min to 2 min each time. 100 µL of a supernatant after grinding was added to each well, and each sample to be tested was repeated twice, and a negative control and a positive control were set at the same time. The microtiter plate was placed in a wet box, incubated in a refrigerator at 4° C. overnight or incubated at 21° C. to 24° C. for 2.5 h. The plate was washed. An enzyme-labeled antibody was prepared 10 min before coating, a dilution buffer of the specific enzyme-labeled antibody was diluted to a working concentration, and 100 µL was added to each well. The microtiter plate was placed in a wet box, incubated at 21° C. to 24° C. for 2.5 h. The plate was washed. The dilution buffer of the enzyme-labeled antibody was obtained by: dissolving 2.0 g of bovine serum albumin (BSA), 10.0 g of PVP (MW24,000-40,000), and 0.2 g of NaN3 in the PBST, diluting to 1,000 mL, and storing at 4° C. 100 µL of a substrate solution was added to each well. The substrate solution was prepared for immediate use by: dissolving 1 mg of PNPP in 1 mL of a substrate buffer, with a concentration of 1 mg/mL. The substrate buffer is obtained by: dissolving 97.0 mL of diethanolamine, 0.1 g of magnesium chloride, and 0.2 g of NaN3 in 800 mL of distilled water, adjusting to a pH value of 9.8 with 2 mol/L hydrochloric acid, diluting to 1000 mL, and storing at 4° C. The microtiter plate was placed in a wet box, to conduct color development at 21° C. to 24° C. for 30 min to 60 min in the dark. 50 µL of a stop solution was added to each well to stop the reaction. The stop solution was a sodium hydroxide solution of 3 mol/L. Within 20 min of stopping the reaction, the microtiter plate was placed in a microplate reader, an absorbance (OD405) was measured at 405 nm, and a reaction result was recorded. If an average OD value of the sample was greater than 2 times an OD value of the negative control, it was determined to be the CarMV.
The indirect ELISA included: Dianthus caryophyllus leaves and an indirect sample extraction buffer were placed in a disposable ziplock bag at a ratio of 1:100 (W/V), the bag was sealed tightly, and the sample was ground. The sample extraction buffer was obtained by: dissolving 20.1 g of PVP (MW24,000-40,000), 0.2 g of NaN3, 3.0 g of NaHCO3, and 1.6 g of Na2CO3 in distilled water, diluting to […], and storing at 4° C. 100 µL of a supernatant after grinding was added to each well, and each sample to be tested was repeated twice, and a negative control and a positive control were set at the same time. The microtiter plate was placed in a wet box and incubated at room temperature for 1 h. After incubation, the microtiter plate was washed 8 times with the PBST washing buffer. […]

Test [2] has as its system Dianthus caryophyllus shoot apex. As to the kind of experiment: Virus-free culture, ribavirin combined with shoot apex peeling: regeneration of peeled shoot apex. It is filed as in vivo. Conditions: 3 mg/L to 5 mg/L ribavirin in medium, 30 d to 40 d; for Number of regenerated plant (s): 30 shoot apexes. An excerpt: After the explant germinated and buds grew to 2 cm to 3 cm, the buds were cut and subjected to virus-free culture; three virus-free methods were used, and the most suitable virus-free method was selected for Dianthus caryophyllus. • (1) Directly shoot apex peeling method: the material was placed on an ultra-clean workbench, and tender leaves were peeled off with tweezers and a scalpel under the naked eye to expose a growth cone; a base of the bud was fixed with tweezers, and the shoot apex was continued to be peeled under a dissecting microscope at 25 to 50 times; when peeling to a growth point containing 1 to 2 pairs of leaf primordia, the shoot apex was picked on a medium with the tip of a knife. • (2) High-temperature treatment combined with shoot apex peeling method: the material was placed in a KBWF720 artificial climate box, and incubated for 30 d to 35 d at 38° C. ± 1° C. every day, with illumination for 14 h to 16 h at 1,200 Lux to 1,500 Lux, and then with darkness for 8 h to 10 h; and the shoot apex was continued to be peeled under a dissecting microscope at 25 to 50 times; when peeling to a growth point containing 1 to 2 pairs of leaf primordia, the shoot apex was picked on a medium with the tip of a knife. • (3) Ribavirin combined with shoot apex peeling method: the material was inoculated on a medium containing ribavirin for culture, namely MS+BA 0.5 mg/L to 1.5 mg/L+NAA 0.1 mg/L to 0.3 mg/L+3 mg/L to 5 mg/L ribavirin+A Agar 6.0 g/L, 3% sucrose, at a pH value of 5.8 to 6.0; after culturing for 30 d to 40 d, the shoot apex was peeled off.
The peeled shoot apex was inoculated on a medium including MS+BA 0.5 mg/L to 1.0 mg/L+NAA 0.1 mg/L to 0.3 mg/L+A agar 6.0 g/L, 3% sucrose, at a pH value of 5.8 to 6.0; each shoot apex was cultured and numbered separately; the culture was conducted at 22±1° C. and an illumination intensity of 2,000 Lux to 4,000 Lux with an illumination time of 10 h/d to 12 h/d.

[3] abbreviates: growth point of peeled shoot apex 0.2 mm.
Setting [4] is: growth point of peeled shoot apex 0.4 mm.
Where [5] appears, read: growth point of peeled shoot apex 0.6 mm.
[6] abbreviates: growth point of peeled shoot apex 0.8 mm.
Where [7] appears, read: growth point of peeled shoot apex 1.0 mm.

For `NC(=O)c1ncn([C@@H]2O[C@H](CO)[C@@H](O)[C@H]2O)n1` [Ribavirin, ribavirin], the “Virus-free rate (%)” value in test [1] (setting [3]) stood at 33.33%; in test [1] (setting [4]) it was 30.00%; in test [1] (setting [5]), 26.67%; in test [1] (setting [6]), 20.00%; in test [1] (setting [7]), 10.00%. The “Number of virus-free regenerated plant (s)” value in test [1] (setting [3]) was determined as 10; in test [1] (setting [4]) it was 9; in test [1] (setting [5]), 8; in test [1] (setting [6]), 6; in test [1] (setting [7]), 3. Besides, the “Regeneration rate (%)” value in test [2] (setting [3]) is 53.33%; in test [2] (setting [4]), 63.33%; in test [2] (setting [5]), 73.33%; in test [2] (setting [6]) it was 86.67%; in test [2] (setting [7]) it was 96.67%. Moreover, the “Number of regenerated plant (s)” value is on record as 16 in test [2] (setting [3]); 19 in test [2] (setting [4]); 22 in test [2] (setting [5]); 26 in test [2] (setting [6]); 29 in test [2] (setting [7]).

(Values after patent US20230363335A1, “STANDARDIZED AND VIRUS-FREE RAPID PROPAGATION METHOD OF DIANTHUS CARYOPHYLLUS” (Flower Research Institute, Yunnan Academy of Agricultural …, priority 2022, published 2023).)
